Measurements reported in patent US3966939A, “Novel 2-substituted 6,7-benzomorphan derivatives and salts thereof in analgesic compositions” (Sumitomo Chemical Company, Limited, priority 1972, dated 1976).

Columns and labels:
[1] = Subcutaneous writhing test (acetic acid); format: in vivo, mice; details: for ED50: Mus musculus, sc, mice, subcutaneous 20 minutes before acetic acid, Litchfeld-Wilcoxon's method; for analgesic activity: in words; for analgesic action compared with pentazocine: subcutaneous writhing test, versus pentazocine
Procedure: […]. Note: The test was based on the specific anatagonism of the test compound to the typical syndrome produced by intraperitoneal injection of 0.6% aqueous acetic acid. The syndrome was characterized by intermittent contractions of the abdomen, twisting and turning of the trunk and extension of the hind legs. A group of 5 mice was used for each dose level. The test compound was administered subcutaneously 20 minutes before the injection of acetic acid. […] The ED50 value was calculated according to the Litchfeld-Wilcoxon's method.

[2] = Addiction / drug dependency in (long term) animal tests; format: in vivo
Excerpt: Hitherto, many benzomorphan derivatives (e.g., phenazocine, pentazocine) have been developed as analgesic drugs but most of them have addiction and produce narcotic symptoms at their usual dosages.
(§1) On account of this addiction liability, these analgesics are severely restricted in a therapeutic use.

[3] = Abstinence syndrome / physical dependency on withdrawal after repeated administration (body weight decrease); format: in vivo, male rats of Wistar strain; design: key to Abstinence syndrome: +++: severe decrease (about 5% decrease); ++: moderate decrease; +: mild decrease; -: no decrease; details: rats; for physical dependency: orally or subcutaneously everyday for over one month; for Abstinence syndrome: subcutaneous twice a day, body weight decrease on the day after drug withdrawal
Procedure: as §1
Note: Groups of male rats of Wistar strain (body weight, 150 g), each group consisting of 20 male rats, were subcutaneously given the test compound twice a day for 4 consecutive weeks. On the next day after drug withdrawal, the body weight was measured. The symbols have the following meanings: +++, severe decrease (about 5% decrease); ++, moderate decrease; +, mild decrease; -, no decrease.

[4] = cited from earlier work

SMILES	ED50 [1] [mg/kg]	analgesic activity [1]	analgesic action compared with pentazocine [1]	addiction in long term animal tests [2]	physical dependency [3]	Abstinence syndrome ([3]; 20 mg/kg/day for 4 weeks)	Abstinence syndrome ([3]; 40 mg/kg/day for 4 weeks)	analgesic activity (known) ([4]; U.S. Pat. No. 3,138,603)	addiction liability (known) ([4]; prior benzomorphan derivatives)
CCC12CCN(CCSC)C(Cc3ccc(O)cc31)C2 (stereo not drawn) [2'-Hydroxy-2-(β-methylthioethyl)-5-ethyl-6,7-benzomorphan]	0.34	strong analgesic activity	much more potent analgesic action than pentazocine	do not show addiction	did not produce any physical dependency	-			
CCC1C2Cc3ccc(O)cc3C1(CC)CCN2CCSC (stereo not drawn) [2'-Hydroxy-2-(β-methylthioethyl)-5,9-diethyl-6,7-benzomorphan]				do not show addiction	did not produce any physical dependency		-		
CC(C)SCCN1CCC2(C)c3cc(O)ccc3CC1C2C (stereo not drawn) [2'-Hydroxy-2-(β-isopropylthioethyl)-5,9-dimethyl-6,7-benzomorphan]	3.6	strong analgesic activity	much more potent analgesic action than pentazocine						
CSCCN1CCC2(C)c3cc(O)ccc3CC1C2C (stereo not drawn) [2'-Hydroxy-2-(β-methylthioethyl)-5,9-dimethyl-6,7-benzomorphan]	3.1	strong analgesic activity	much more potent analgesic action than pentazocine	do not show addiction	did not produce any physical dependency		-		
CC1C2Cc3ccc(O)cc3C1(C)CCN2C (stereo not drawn) [2'-Hydroxy-2,5,9-trimethyl-6,7-benzomorphan]						++		potent analgesic activity	show an addition liability
